# Columns and labels:
# CYP2E1 = CYP2E1 (Mus musculus, UniProt Q05421); test: biochemical
# CYP3A4 = test: Inhibition of CYP3A4 in CD1 mouse hepatocytes (midazolam probe); conditions: both, hepatocytes
# CYP1A2 [1] = target: T1, CYP1A2 (Mus musculus, UniProt P00186); test: Inhibition of CYP1A2 in CD1 mouse hepatocytes (phenacetin probe)
# T1 sequence (P00186 1-513): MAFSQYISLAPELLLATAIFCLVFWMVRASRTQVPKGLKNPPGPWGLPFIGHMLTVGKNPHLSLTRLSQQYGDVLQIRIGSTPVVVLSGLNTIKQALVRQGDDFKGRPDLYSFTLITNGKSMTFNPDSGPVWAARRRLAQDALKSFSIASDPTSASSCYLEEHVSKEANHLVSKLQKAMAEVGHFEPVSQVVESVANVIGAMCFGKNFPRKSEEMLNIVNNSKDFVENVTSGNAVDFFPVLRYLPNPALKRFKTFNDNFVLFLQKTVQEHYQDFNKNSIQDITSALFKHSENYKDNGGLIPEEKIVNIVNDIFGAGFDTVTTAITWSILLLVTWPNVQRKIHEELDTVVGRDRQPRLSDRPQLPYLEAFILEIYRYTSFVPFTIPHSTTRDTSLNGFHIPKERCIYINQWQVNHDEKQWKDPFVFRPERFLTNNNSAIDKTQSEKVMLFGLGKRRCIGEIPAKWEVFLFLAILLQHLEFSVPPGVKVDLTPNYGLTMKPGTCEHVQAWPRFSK
# CYP1A2 [2] = target: T2, CYP1A2 (Homo sapiens, UniProt P05177); test: biochemical
# T2 sequence (P05177 1-516): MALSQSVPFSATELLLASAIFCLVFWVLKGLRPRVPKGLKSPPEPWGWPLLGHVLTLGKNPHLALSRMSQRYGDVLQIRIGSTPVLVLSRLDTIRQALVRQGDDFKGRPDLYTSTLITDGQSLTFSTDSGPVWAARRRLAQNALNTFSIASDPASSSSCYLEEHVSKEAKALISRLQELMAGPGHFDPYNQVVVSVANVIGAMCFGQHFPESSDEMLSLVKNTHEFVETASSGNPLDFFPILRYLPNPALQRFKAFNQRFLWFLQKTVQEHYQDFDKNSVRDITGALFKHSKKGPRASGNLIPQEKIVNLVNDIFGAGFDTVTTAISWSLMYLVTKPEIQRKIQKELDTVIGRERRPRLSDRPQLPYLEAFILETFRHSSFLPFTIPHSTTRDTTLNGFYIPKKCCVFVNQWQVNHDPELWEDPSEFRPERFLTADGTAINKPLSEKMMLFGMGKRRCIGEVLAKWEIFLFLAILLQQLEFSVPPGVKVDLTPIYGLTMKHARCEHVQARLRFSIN
# CYP2A6 [3] = target: T3, CYP2A6 (Mus musculus, UniProt P20852); test: biochemical
# T3 sequence (P20852 1-494): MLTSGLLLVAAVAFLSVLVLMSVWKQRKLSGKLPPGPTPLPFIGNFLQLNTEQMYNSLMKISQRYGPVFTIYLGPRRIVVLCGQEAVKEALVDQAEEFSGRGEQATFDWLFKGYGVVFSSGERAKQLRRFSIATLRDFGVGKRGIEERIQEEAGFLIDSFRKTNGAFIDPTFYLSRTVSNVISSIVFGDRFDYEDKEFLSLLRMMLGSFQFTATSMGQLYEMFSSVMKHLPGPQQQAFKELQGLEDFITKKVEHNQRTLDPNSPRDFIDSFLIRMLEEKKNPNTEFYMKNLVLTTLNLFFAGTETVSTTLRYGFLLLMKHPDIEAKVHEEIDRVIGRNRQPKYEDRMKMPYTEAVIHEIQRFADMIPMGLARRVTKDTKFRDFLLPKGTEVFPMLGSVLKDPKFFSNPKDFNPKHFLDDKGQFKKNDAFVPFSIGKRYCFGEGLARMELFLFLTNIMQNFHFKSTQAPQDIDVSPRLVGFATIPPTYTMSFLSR
# CYP2A6 [4] = target: T4, CYP2A6 (Homo sapiens, UniProt P11509); test: Inhibition of CYP2A6 in human hepatocytes (coumarin probe)
# T4 sequence (P11509 1-494): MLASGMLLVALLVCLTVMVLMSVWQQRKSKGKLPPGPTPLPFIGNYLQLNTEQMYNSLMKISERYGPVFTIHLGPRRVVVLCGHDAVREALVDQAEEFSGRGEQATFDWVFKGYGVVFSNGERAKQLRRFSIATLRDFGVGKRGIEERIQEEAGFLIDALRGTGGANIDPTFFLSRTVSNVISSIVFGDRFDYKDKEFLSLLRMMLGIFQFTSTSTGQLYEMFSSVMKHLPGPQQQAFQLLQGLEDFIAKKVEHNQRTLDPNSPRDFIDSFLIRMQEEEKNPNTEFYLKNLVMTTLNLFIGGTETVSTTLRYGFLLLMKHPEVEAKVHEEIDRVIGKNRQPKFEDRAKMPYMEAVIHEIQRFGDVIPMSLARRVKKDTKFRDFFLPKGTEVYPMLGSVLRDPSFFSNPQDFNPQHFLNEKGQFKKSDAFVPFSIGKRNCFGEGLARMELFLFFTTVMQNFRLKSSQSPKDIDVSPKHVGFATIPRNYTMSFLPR
# CYP1A2 [5] = target: T2, CYP1A2; test: Metabolite formation by recombinant human CYP1A2; assay type: in vitro ADME; conditions: trazodone 4 μM; NADPH; 37 °C, 40 min
# Experimental: (§1) To confirm the role of individual CYP isoforms in metabolizing trazodone, recombinant human and rat CYP enzymes were employed in separate incubations. […] Each reaction was terminated with acetonitrile, centrifuged, and the supernatant was analyzed by identical UHPLC-Orbitrap setup outlined in §2.2, allowing direct comparison of metabolite spectra across all in-vitro systems. […] This procedure helped confirm the contributions of individual isoforms to specific biotransformation reactions.
# CYP1A2 [6] = target: CYP1A2 (Rattus norvegicus, UniProt P04799); test: Metabolite formation by recombinant rat CYP1A2; assay type: in vitro ADME; conditions: trazodone 4 μM; NADPH; 37 °C, 40 min
# Chain of CYP1A2 (Rattus norvegicus, UniProt P04799) (P04799 whole entry): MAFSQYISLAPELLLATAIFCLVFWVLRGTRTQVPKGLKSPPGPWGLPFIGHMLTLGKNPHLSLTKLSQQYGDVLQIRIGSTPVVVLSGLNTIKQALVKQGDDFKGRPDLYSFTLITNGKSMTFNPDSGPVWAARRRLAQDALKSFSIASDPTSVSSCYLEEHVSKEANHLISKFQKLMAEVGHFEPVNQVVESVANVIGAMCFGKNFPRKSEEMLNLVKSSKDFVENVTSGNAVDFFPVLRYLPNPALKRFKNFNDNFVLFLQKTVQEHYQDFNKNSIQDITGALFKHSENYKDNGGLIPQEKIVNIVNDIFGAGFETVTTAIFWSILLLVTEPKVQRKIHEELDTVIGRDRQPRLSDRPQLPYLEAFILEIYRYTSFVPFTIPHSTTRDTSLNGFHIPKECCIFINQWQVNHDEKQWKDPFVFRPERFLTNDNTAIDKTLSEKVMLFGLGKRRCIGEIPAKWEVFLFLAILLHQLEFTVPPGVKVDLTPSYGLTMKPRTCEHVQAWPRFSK
# Experimental: as §1
# Chain of CYP2E1 (Q05421 whole entry): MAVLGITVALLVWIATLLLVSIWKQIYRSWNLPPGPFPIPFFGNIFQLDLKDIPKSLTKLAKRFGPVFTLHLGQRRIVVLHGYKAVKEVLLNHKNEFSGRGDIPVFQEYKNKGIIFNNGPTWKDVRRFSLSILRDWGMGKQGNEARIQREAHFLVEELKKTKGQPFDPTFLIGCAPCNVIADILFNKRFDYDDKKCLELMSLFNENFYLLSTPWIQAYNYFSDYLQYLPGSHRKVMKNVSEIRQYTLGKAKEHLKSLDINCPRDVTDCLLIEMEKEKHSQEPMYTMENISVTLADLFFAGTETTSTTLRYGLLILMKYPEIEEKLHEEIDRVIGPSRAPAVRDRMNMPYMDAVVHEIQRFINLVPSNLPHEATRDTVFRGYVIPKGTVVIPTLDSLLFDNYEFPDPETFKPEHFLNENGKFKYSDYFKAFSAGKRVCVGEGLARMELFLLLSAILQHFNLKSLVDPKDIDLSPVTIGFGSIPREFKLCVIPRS
compound,measurement,setting,value
"Clc1cccc(N2CCNCC2)c1 [mCPP, m-chlorophenylpiperazine]",IC50,CYP2E1,1.88 µM
same,IC50,CYP1A2 [1],> 100 µM
same,IC50,CYP1A2 [2],> 100 µM
same,IC50,CYP2A6 [3],> 100 µM
same,IC50,CYP2A6 [4],29.8 µM
same,Formation of trazodone phase I metabolite by recombinant human CYP1A2 (as LC/MS peak areas),CYP1A2 [5],266
same,Formation of trazodone phase I metabolite by recombinant rat CYP1A2 (as LC/MS peak areas),CYP1A2 [6],2151

# From publication PMC12518996 (Frontiers in Pharmacology, 2025)
